In test [1] the test system is SET2 cells. Briefly: SET2 viability with prodrug plus recombinant enzyme or enzyme-containing supernatant. The settings on record: SET2, with Beta-lactamase supernatant. Type of test: cell-based. On the procedure: Recombinant CPG2 protein was initially synthesized, purified (FIGS. 15A and 15B), and incubated with increasing concentrations of prodrug in a glutamate release assay (FIG. 14C). Mass spectrometry was used to determine that the glutamate moiety was released from all of the glutamate prodrugs.
Cell viability was measured by CellTitre-Glo® luminescence assay.
To determine to respective enzyme output of the Beta-lactamase constructs relative to the previous CPG2 constructs, a quantitative sandwich ELISA was used to determine the concentration (ng/mL) of purified recombinant CPG2, and a quantitative nitrocefin assay was used to determine the concentration (ng/mL) of purified recombinant Beta-lactamase (FIG. 22A). Cell viability was measured by CellTitre-Glo® luminescence in the presence of prodrug (glut-AMS or ceph-AMS) and varying concentrations of purified recombinant CPG2 or Beta-lactamase (FIG. 22B).

Test [2] relates to HEK293T cells expressing CPG2. The experiment in a line: Prodrug treatment of HEK293T cells expressing CPG2 variants. Type of test: cell-based, human. How it is done:
Expression of CPG2 without a signal peptide (CPG2nosigp) was employed as a control. HEK293t cells stably transfected with CPG2 variants were exposed to P-AMS (1 μM) for 48 hours and analyzed by bright field microscopy (FIG. 9A). Cells were exposed to varying concentrations of P-AMS and cell viability was analyzed at 48 hr post treatment (FIG. 9B).

Test [3] deals with Human Jurkat T cells. The experiment in a line: Prodrug activation by purified recombinant CPG2, Jurkat viability. The settings on record: Jurkat viability at 48 hours. Type of test: cell-based. How it is done: FIG. 4 provides exemplary data showing activation of P-AMS (see FIG. 2) by recombinant CPG2 expressed and purified from E. coli. (A) Human Jurkat T cells were incubated with or without P-AMS in the presence of increasing concentration of purified CPG2. […] (B) Recombinant CPG2 was exposed to various concentrations of glutamated AMS prodrug. Following incubation at 37° C. (0.5, 1, 2, and 4 hr.), the reaction was combined with Amplex® Red (converts free glutamate to a fluorescent species) and fluorescent emission was analyzed using a fluorescence multiwell plate scanner.
The CPG2-pET151 vector was transformed into BL21 star E. coli cells and induced with IPTG. Bacteria were homogenized in a French Press and purified by affinity chromatography over Ni++ beads using standard protocols. Imidazole was exchanged via PBS dialysis and protein was purified via desalting spin columns. The expressed and purified CPG2 was assayed to confirm that the active enzyme was a potent converter of glutamated prodrugs. […] Pro-AMS was activated by recombinant CPG2 in vitro. Human Jurkat T cells were incubated with or without P-AMS in the presence of increasing concentration of purified CPG2. […] (FIG. 4B) Similar enzyme kinetics will be used to assess the characteristics of the enzyme activity for each of the prodrugs similarly. […]

The subject of test [4] is Jurkat T cells. The settings on record: increasing prodrug with CPG2 supernatant, 48 hours.

On to `Nc1ncnc2c1ncn2[C@@H]1O[C@H](COS(=O)(=O)NCC2=C(C(=O)O)N3C(=O)[C@@H](NC(=O)Cc4cccs4)[C@H]3SC2)[C@@H](O)[C@H]1O` [ceph-AMS], for which the cell viability result in test [1] is on record as “significant decrease in cell viability”.

As for `NS(=O)(=O)OC[C@H]1O[C@@H](n2cnc3c(NC(=O)N[C@@H](CCC(=O)O)C(=O)O)ncnc32)[C@H](O)[C@@H]1O` [P-AMS, ((9-((2R,3R,4S,5R)-3,4-dihydroxy-5-((sulfamoyloxy)methyl)tetrahydrofuran-2-yl)-9H-purin-6-yl)carbamoyl)-L-glutamic acid], in test [2] (HEK293T cells expressing CPG intracellularly), the activation of prodrug result is given as “not activated”. Moreover, in test [2] (stably transfected HEK293T with cell-secreted or transmembrane CPG2, 48 hr), the cell death entry is “significant cell death”. Also, the “activation by recombinant CPG2 in vitro” value in test [3] was “activated”. The cell viability result in test [4] is on record as “significant decrease in cell viability”.

(Values after US12496310B2, “Compositions and methods for adoptive cell therapy” (MEMORIAL SLOAN KETTERING CANCER CENTER, priority 2017, dated 2025).)
